Test results: article PMC12533185 (Nature Communications, 2025)

Columns and labels:
[1] = test system: mechanical loading PTOA mice; assay: Joint histology; type: in vivo, mouse; conditions: six weeks
[2] = test system: mechanical loading PTOA mice; assay: Walking speed in PTOA mice; type: in vivo, mouse; conditions: after six weeks, MP 4 mg/kg weekly
[3] = test system: mechanical loading PTOA mice; assay: Micro-CT: osteophyte size in PTOA mice; type: in vivo, mouse
[4] = test system: mechanical loading PTOA mice; assay: OARSI score in PTOA mice; type: in vivo, mouse
Col2α1 mRNA = Col2α1 mRNA expression in ATDC5 cells; type: cell-based, mouse; conditions: 10 μg/ml recombinant insulin, 7 days

Molecule | joint histology [1] | walking speed, % of initial level [2] | block of osteophytes formation and ectopic mineralization [3] | OARSI score relative to MP&si-VPN@HA [4] | increase of Col2α1 expression (Col2α1 mRNA)
C[C@H]1C[C@@H]2[C@H]([C@@H](O)C[C@@]3(C)[C@H]2CC[C@]3(O)C(=O)CO)[C@@]2(C)C=CC(=O)C=C12 [MP, methylprednisolone] | large proteoglycan loss and cartilage erosion | 18.22% | Neither MP nor si-VPN-2 could significantly block osteophytes formation and ectopic mineralization | 5.67 fold | –
insulin: recombinant insulin used to induce chondrogenesis of ATDC5 cells | – | – | – | – | ~ 10 fold
